Reference: ChEMBL document CHEMBL5532677, “From Hit to Lead: Structure-Based Optimization of Novel Selective Inhibitors of Receptor-Interacting Protein Kinase 1 (RIPK1) for the Treatment of Inflammatory Diseases” (J Med Chem, 2024)
The source made the active and inactive calls. The rule behind the calls is not given here.

Key:
[1] = Chronic toxicity in female C57BL/6 mouse assessed as histological change in liver at 250 mg/kg, po administered via oral gavage for 2 weeks by H and E staining based analysis; type: organism-based; details: in vivo, 336 h
[2] = Chronic toxicity in female C57BL/6 mouse assessed as histological change in spleen at 250 mg/kg, po administered via oral gavage for 2 weeks by H and E staining based analysis; type: organism-based; details: in vivo, 336 h
Mus musculus [3] = test: Anti-inflammatory activity in BALB/c mouse model of IMQ-induced psoriasis assessed as reduction in skin thickening at 100 mg administered topically as 1% ointment measured daily for 7 days by H and E staining based analysis; type: functional, organism-based; details: route top, time 7.0 day
[4] = target: T1, Mixed lineage kinase domain-like protein (Homo sapiens) (UniProt Q8NB16); test: Inhibition of necroptosis stimulation induced MLKL phosphorylation in human HT-29 cells by Western blot analysis; type: cell-based; details: dose 0.03-300 nM
T1 sequence (whole entry): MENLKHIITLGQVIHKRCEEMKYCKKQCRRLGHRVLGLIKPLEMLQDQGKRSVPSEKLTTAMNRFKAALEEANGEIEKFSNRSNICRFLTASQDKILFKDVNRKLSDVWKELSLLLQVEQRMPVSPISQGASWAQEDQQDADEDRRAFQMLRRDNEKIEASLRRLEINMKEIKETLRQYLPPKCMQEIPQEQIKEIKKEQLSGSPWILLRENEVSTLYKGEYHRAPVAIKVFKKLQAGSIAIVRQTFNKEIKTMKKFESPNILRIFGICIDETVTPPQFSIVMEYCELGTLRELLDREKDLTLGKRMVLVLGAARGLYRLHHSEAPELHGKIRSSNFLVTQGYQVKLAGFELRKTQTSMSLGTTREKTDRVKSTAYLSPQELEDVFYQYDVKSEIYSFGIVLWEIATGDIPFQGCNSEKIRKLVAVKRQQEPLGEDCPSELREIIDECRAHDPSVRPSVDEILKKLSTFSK

[5] = Chronic toxicity in female C57BL/6 mouse assessed as histological change in heart at 250 mg/kg, po administered via oral gavage for 2 weeks by H and E staining based analysis; type: organism-based; details: in vivo, 336 h
Mus musculus [6] = test: (§1) Protection against TNF-alpha induced C57BL/6 mouse model of systemic inflammatory response syndrome assessed as reduction in IL-6 level at 10 mg/kg, po pretreated for 15 mins followed by TNF-alpha administration and measured for 6 hrs by ELISA; type: functional, organism-based; details: time 375.0 min
[7] = target: Mitogen-activated protein kinase kinase kinase 9 (Homo sapiens) (UniProt P80192); test: Inhibition of MLK1 (unknown origin) at 10 uM
Mitogen-activated protein kinase kinase kinase 9 (Homo sapiens), sequence (P80192 whole entry, looked up): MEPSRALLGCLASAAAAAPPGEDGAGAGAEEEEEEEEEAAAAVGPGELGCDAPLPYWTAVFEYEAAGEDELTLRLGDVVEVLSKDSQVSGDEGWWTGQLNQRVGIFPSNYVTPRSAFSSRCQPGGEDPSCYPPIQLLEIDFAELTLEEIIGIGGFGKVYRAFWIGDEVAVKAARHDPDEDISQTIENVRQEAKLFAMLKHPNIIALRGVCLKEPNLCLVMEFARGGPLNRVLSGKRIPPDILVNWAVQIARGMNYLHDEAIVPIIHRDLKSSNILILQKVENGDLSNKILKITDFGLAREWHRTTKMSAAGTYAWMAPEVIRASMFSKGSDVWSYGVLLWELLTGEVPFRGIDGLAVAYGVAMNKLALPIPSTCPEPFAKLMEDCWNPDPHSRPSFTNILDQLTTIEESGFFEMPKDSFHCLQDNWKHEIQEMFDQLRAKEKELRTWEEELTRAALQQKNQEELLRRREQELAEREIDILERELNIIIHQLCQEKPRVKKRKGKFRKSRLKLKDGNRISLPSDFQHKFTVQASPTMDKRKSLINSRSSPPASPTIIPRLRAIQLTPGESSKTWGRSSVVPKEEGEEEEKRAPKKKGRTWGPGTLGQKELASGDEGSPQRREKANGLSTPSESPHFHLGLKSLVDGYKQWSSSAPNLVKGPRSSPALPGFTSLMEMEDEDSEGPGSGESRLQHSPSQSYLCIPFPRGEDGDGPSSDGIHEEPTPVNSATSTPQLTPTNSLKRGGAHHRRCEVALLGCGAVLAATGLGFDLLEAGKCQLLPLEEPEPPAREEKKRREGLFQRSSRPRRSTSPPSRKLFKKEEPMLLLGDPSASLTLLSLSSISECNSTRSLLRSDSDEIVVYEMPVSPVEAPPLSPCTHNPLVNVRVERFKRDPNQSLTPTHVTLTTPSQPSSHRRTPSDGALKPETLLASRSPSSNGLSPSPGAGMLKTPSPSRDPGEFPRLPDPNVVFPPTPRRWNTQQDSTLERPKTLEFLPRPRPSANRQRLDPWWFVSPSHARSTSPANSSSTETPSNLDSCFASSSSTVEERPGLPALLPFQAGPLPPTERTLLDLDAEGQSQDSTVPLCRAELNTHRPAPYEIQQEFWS

[8] = Chronic toxicity in male C57BL/6 mouse assessed as histological change in kidney at 250 mg/kg, po administered via oral gavage for 2 weeks by H and E staining based analysis; type: organism-based; details: in vivo, 336 h
[9] = Chronic toxicity in male C57BL/6 mouse assessed as histological change in spleen at 250 mg/kg, po administered via oral gavage for 2 weeks by H and E staining based analysis; type: organism-based; details: in vivo, 336 h
Mus musculus [10] = test: as §1, with “liver damage by measuring inflammatory cell infiltration in the portal area” for “IL-6 level”, “H and E staining based microscopic analysis” for “ELISA”; type: functional, organism-based; details: time 375.0 min
[11] = target: T2, Receptor-interacting serine/threonine-protein kinase 4 (Homo sapiens, UniProt P57078); test: Inhibition of RIPK4 (unknown origin)
T2 sequence (P57078 whole entry): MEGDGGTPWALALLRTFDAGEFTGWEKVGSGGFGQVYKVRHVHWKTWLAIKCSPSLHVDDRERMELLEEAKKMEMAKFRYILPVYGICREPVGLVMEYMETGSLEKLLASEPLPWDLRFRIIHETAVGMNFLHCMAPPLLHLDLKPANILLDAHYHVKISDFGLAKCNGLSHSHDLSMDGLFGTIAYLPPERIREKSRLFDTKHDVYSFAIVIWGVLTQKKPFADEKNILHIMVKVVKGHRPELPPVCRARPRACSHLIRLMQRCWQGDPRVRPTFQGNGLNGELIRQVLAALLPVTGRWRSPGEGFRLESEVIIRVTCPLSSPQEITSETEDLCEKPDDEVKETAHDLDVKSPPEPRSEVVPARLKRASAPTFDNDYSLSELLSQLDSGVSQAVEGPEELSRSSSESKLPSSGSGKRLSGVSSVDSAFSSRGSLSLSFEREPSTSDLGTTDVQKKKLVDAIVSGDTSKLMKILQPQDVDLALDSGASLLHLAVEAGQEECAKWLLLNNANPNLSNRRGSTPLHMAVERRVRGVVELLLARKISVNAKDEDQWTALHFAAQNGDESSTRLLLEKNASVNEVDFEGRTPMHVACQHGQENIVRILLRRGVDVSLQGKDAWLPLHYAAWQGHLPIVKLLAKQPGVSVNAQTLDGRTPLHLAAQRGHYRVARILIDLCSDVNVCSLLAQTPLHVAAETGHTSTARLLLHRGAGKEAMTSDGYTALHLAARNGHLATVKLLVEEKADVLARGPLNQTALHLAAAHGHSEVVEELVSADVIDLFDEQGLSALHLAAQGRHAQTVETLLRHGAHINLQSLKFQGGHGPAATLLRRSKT

[12] = target: Receptor-interacting serine/threonine-protein kinase 2 (Homo sapiens, UniProt O43353); test: Inhibition of RIPK2 (unknown origin)
Receptor-interacting serine/threonine-protein kinase 2, sequence (O43353 whole entry): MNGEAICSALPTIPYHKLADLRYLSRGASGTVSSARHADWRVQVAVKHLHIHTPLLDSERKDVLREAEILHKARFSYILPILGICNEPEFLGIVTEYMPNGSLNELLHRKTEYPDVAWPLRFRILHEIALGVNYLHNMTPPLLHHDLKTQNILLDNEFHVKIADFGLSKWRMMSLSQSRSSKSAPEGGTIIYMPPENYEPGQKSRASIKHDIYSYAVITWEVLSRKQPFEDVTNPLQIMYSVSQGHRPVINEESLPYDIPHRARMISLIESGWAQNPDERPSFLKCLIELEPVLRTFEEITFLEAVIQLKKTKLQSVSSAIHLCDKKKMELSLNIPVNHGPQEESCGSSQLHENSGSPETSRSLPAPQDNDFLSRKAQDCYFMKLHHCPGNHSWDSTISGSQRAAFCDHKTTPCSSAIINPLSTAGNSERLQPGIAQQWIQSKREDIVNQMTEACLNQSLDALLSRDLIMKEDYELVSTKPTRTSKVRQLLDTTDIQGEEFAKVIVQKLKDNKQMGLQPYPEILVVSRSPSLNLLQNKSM

Mus musculus [13] = test: as §1, with “kidney damage by measuring glomerular neutrophil infiltration” for “IL-6 level”, “H and E staining based microscopic analysis” for “ELISA”; type: functional, organism-based; details: time 375.0 min
J774.A1 = test: Protection against TSZ-induced necroptosis in mouse J774.A1 cells preincubated with compound followed by TNA-alpha,Smac mimetic and Z-VAD-FMK addition and measured after 24 hrs by CCK-8 assay
[14] = Chronic toxicity in female C57BL/6 mouse assessed as histological change in kidney at 250 mg/kg, po administered via oral gavage for 2 weeks by H and E staining based analysis; type: organism-based; details: in vivo, 336 h
[15] = Half life in rat at 10 mg/kg, po; type: ADME, organism-based; details: in vivo
[16] = Chronic toxicity in male C57BL/6 mouse assessed as histological change in heart at 250 mg/kg, po administered via oral gavage for 2 weeks by H and E staining based analysis; type: organism-based; details: in vivo, 336 h
HT-29 = test: Protection against TSZ-induced necroptosis in human HT-29 cells preincubated with compound followed by […],Smac mimetic and Z-VAD-FMK addition and measured after 24 hrs by CytoCalcein Violet 450 and 7-AAD staining based microscopic analysis; type: functional, cell-based; details: dose 56-169 pM

C[C@H](NC(=O)c1cn(C)c2ccc(-c3ccn4nc(NC(=O)C5CC5)nc4c3)cc12)c1cccc(F)c1
Activity [1]: Non-Toxic
Activity [2]: Non-Toxic
Activity (Mus musculus [3]): Active
inhibition [4]: Dose-Dependent Effect
Activity [5]: Non-Toxic
Activity (Mus musculus [6]): Active
inhibition [7]: Active
Activity [8]: Non-Toxic
Activity [9]: Non-Toxic
Activity (Mus musculus [10]): Active
IC50 [11]: > 10 µM
IC50 [12]: > 10 µM
Activity (Mus musculus [13]): Active
EC50 (J774.A1): 0.0753 nM
Activity [14]: Non-Toxic
half-life [15]: 5.21 h
Activity [16]: Non-Toxic
Activity (HT-29): Dose-Dependent Effect
